Legend:
SRPK1, SRPK2 = assay: KiNativ in-cell kinase binding, SRPK1, SRPK2; conditions: 2 µM
Excerpt: As KINOMEscan is an in vitro assay, and as different cell types have variable kinase expression profiles we sought to determine the kinase binding profile in our SH-SY5Y TFEB-relocalization cell model. […] Bound kinases were pulled down and analyzed by mass spectrometry to determine the in situ kinase binding profile for each compound.

TFEB = assay: Cellular fractionation and western blot of nuclear/cytoplasmic TFEB; format: cell-based; conditions: nuclear/cytoplasmic TFEB ratio, western blot
Protocol: Cells were washed with cold PBS (ThermoFisher Scientific/Gibco, 10,010–015) and lysed in RIPA buffer (0.5% Triton X-100, 10 mM Tris/HCl, pH 8.0, 1 mM EDTA (Sigma Aldrich, E6511), 0.5 mM EGTA (Sigma Aldrich, E3889), 0.1% sodium dodecyl sulfate [SDS], 0.02% sodium deoxycholate (Sigma Aldrich, D6750), and 140 mM NaCl (Sigma Aldrich, S9625) supplemented with protease-inhibitor cocktail (Sigma Aldrich/Roche, 4,693,132,001) and phosphatase inhibitors (Roche/Sigma Aldrich, 4,906,845,001) for 30 min at 4°C. The lysates were centrifuged at 13,000 g for 15 min and the supernatants collected. Protein concentration was quantified using BCA reagent (Thermofisher Scientific, 23,252) and 4× SDS Laemmli buffer was added. The samples were boiled at 95°C for 5 min before SDS-polyacrylamide gel electrophoresis (SDS-PAGE) using Mini-PROTEAN® Precast Gels (Bio-Rad, 4,568,094). Ten micrograms of protein per lane were separated by SDS/PAGE and transferred to a PVDF membrane using the Trans-Blot Turbo Transfer System (Bio-Rad, Hercules, CA, USA). […] Nuclear and cytoplasmic fractions were assessed with a LMNA/lamin A/C antibody (Santa Cruz Biotechnology, sc-7292) or GAPDH antibody (Abcam, ab9484), respectively.
Figure S5. […] (C) The levels of nuclear/cytoplasmic TFEB were quantified and presented as a ratio. […]

[1] = target: T1, kinases (KINOMEscan panel) (Homo sapiens, UniProt Q9UL54); set-up: method as in original PKIS2 published data; conditions: kinase TAOK2; Published KINOMEscan; ref original PKIS2 published data; cited from earlier work
T1 sequence (Q9UL54 1-1235): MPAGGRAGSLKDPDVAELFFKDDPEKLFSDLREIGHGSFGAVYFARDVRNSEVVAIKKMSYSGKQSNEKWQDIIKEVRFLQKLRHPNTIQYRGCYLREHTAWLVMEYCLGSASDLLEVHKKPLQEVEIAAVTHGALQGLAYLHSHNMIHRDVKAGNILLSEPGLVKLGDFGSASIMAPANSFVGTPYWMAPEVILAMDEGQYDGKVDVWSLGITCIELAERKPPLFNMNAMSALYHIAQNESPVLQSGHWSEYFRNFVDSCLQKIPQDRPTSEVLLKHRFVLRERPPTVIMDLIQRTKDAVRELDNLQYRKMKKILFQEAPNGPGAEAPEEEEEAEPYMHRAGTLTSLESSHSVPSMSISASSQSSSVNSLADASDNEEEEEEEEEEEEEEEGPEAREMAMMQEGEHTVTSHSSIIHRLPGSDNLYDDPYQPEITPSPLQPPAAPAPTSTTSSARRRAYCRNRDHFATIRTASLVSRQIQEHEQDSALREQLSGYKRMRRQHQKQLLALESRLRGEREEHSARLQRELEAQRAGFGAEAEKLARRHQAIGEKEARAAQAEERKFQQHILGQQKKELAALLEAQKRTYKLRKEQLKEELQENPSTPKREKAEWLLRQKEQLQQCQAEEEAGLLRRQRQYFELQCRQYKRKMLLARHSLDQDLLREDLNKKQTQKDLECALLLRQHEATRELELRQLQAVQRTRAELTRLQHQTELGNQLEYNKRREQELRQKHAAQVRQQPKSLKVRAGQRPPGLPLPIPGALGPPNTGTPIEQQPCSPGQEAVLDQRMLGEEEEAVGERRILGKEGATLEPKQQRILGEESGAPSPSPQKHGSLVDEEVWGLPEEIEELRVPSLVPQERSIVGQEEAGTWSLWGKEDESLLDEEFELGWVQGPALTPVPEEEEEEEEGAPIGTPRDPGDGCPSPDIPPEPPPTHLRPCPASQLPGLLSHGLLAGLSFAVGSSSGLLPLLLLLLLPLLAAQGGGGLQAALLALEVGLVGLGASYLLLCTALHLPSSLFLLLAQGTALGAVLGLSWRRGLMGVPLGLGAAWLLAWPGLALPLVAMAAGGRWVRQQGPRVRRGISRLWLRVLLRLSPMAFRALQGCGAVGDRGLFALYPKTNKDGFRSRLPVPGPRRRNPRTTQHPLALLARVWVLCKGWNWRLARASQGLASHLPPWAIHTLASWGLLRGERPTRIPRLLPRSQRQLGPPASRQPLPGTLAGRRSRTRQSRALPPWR

SMILES | KiNativ in-cell binding, % Inhibition, SRPK1, SRPK2 (SRPK1, SRPK2) [%] | Translocation of TFEB to the nucleus, cellular fractionation (in words) (TFEB) | KINOMEscan TAOK2 [1]
Cc1cccc(-c2nc(Nc3ccc4ncsc4c3)c3ccccc3n2)n1 [NK140] | 80.8 | increased translocation of TFEB to the nucleus | 
Cc1cccc(-c2nc(Nc3ccncc3)c3ccccc3n2)n1 [NK215] |  |  | 17

Source: article PMC9851200, “Multiparameter phenotypic screening for endogenous TFEB and TFE3 translocation identifies novel chemical series modulating lysosome function” (Autophagy, 2022)
